Reference: patent US20250215029A1 (Recludix Pharma, Inc., priority 2022, published 2025)
Like-named read-outs stand apart in the source and are kept apart here.

Assays:
pY641-STAT6 in PBMC = target: T1, pY641-STAT6 in PBMC (Homo sapiens, UniProt P42226); experiment: MSD-pSTAT-PBMC Assay (pSTAT6, IL-4 stimulated); assay type: cell-based; conditions: compound 3 hrs, then 1 ng/mL IL-4 for 10 min, Table 115
T1 construct: Cryopreserved Peripheral Blood Mononuclear Cells (PBMC) are from AllCells; host or cells: cryopreserved PBMC
T1 sequence (P42226 1-847): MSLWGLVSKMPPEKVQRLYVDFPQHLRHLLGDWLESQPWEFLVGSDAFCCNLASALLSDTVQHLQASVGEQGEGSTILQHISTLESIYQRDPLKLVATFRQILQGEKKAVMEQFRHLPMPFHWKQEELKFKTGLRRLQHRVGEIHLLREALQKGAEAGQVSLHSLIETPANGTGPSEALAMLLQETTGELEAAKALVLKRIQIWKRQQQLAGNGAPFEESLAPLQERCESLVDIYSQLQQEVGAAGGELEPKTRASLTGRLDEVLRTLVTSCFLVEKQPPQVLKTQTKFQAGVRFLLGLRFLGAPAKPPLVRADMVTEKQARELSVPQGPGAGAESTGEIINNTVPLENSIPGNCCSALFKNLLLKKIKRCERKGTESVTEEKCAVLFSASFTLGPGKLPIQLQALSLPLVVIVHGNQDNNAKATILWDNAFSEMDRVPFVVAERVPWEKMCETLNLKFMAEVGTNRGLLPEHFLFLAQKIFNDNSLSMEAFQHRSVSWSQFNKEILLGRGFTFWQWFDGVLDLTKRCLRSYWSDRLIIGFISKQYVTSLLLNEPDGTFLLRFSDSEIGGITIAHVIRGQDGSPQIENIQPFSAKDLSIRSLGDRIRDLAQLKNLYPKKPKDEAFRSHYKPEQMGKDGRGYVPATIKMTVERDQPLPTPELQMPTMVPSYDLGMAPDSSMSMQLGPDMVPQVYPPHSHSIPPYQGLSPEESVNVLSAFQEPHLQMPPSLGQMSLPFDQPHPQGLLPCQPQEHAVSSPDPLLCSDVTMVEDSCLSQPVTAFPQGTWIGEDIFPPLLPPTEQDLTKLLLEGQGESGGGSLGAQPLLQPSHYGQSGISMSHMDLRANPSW
Summary of the method: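 Cells are preincubated with compound for 3 hrs, then stimulated for 10 min, IL-4 at 1 ng/mL driving STAT6 phosphorylation and IL-6 at 10 ng/mL driving STAT3. Phospho-STAT in lysates is quantified by MSD immunoassay, and IC50 is fitted after subtracting unstimulated wells.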

pY705-STAT3 in PBMC = target: T2, pY705-STAT3 in PBMC (Homo sapiens, UniProt P40763); experiment: MSD-pSTAT-PBMC Assay (pSTAT3, IL-6 stimulated); assay type: cell-based; conditions: PBMC, compound 3 hrs, then 10 ng/mL IL-6 for 10 min; Table 115; read-out: STAT3
T2 construct: Cryopreserved Peripheral Blood Mononuclear Cells (PBMC) are from AllCells; host or cells: cryopreserved PBMC
T2 sequence (P40763 whole entry): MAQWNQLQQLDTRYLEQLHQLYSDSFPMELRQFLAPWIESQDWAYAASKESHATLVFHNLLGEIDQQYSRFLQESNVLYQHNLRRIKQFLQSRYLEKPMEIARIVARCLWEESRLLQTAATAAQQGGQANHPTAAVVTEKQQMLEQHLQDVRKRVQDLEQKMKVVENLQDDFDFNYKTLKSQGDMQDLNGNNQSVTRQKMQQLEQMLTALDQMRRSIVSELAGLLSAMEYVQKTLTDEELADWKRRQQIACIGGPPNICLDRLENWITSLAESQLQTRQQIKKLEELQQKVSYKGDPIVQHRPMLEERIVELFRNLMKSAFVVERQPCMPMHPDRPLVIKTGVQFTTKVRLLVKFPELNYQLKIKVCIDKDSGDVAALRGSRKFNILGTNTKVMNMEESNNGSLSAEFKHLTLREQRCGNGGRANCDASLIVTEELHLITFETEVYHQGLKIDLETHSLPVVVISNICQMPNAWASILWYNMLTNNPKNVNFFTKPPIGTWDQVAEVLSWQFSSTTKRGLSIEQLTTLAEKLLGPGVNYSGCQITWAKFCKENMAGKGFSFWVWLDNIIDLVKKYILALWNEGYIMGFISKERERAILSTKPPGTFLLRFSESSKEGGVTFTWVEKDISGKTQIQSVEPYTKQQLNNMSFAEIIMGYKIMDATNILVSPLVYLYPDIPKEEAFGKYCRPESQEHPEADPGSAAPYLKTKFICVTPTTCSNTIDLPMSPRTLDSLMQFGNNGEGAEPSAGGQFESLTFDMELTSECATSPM
Summary of the method: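 MSD electrochemiluminescence read-out: total STAT captured, probed with anti-pY641-STAT6 or anti-pY705-STAT3. Human PBMC, 3 h compound pretreatment, 10 min stimulation (IL-4 1 ng/mL or IL-6 10 ng/mL). Unstimulated signal subtracted, DMSO-normalized, variable-slope IC50.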

CCCCOC(=O)[C@H](C)NP(=O)(Cc1ccc2ccc(C(=O)N[C@H]3CCCC[C@H]4CC[C@@H](C(=O)N5CC(c6ccccc6)CC56CC6)N4C3=O)cc2c1)Oc1ccccc1 (stereo partly drawn) [Compound 405, butyl (((7-(((3S,6S,10aS)-5-oxo-3-(6-phenyl-4-azaspiro[2.4]heptane-4-carbonyl)decahydropyrrolo[1,2-a]azocin-6-yl)carbamoyl)naphthalen-2-yl)methyl)(phenoxy)phosphoryl)-L-alaninate]
IC50 (pY641-STAT6 in PBMC; STAT6, PBMC): 1000 to 3000 nM | IC50 (pY705-STAT3 in PBMC): > 3000 nM

CCCCOC(=O)[C@H](C)NP(=O)(Oc1cccc2ccccc12)C(F)(F)c1ccc2ccc(C(=O)N[C@H]3CCCC[C@H]4CC[C@@H](C(=O)N5CC(c6ccccc6)CC56CC6)N4C3=O)cc2c1 (stereo partly drawn) [Compound 406, butyl ((difluoro(7-(((3S,6S,10aS)-5-oxo-3-(6-phenyl-4-azaspiro[2.4]heptane-4-carbonyl)decahydropyrrolo[1,2-a]azocin-6-yl)carbamoyl)naphthalen-2-yl)methyl) (naphthalen-1-yloxy)phosphoryl)-L-alaninate]
IC50 (pY641-STAT6 in PBMC; STAT6, PBMC): 1000 to 3000 nM | IC50 (pY705-STAT3 in PBMC): > 3000 nM

CCCCOC(=O)[C@H](C)NP(=O)(Oc1ccccc1)C(F)(F)c1ccc2ccc(C(=O)N[C@H]3CCCC[C@H]4CC[C@@H](C(=O)N5CC(c6ccccc6)CC56CC6)N4C3=O)cc2c1 (stereo partly drawn) [Compound 407, butyl ((difluoro(7-(((3S,6S,10aS)-5-oxo-3-(6-phenyl-4-azaspiro[2.4]heptane-4-carbonyl)decahydropyrrolo[1,2-a]azocin-6-yl)carbamoyl)naphthalen-2-yl)methyl)(phenoxy)phosphoryl)-L-alaninate]
IC50 (pY641-STAT6 in PBMC; STAT6, PBMC): 1000 to 3000 nM | IC50 (pY705-STAT3 in PBMC): > 3000 nM

CCCOC(=O)[C@H](C)NP(=O)(Cc1ccc2ccc(C(=O)N[C@H]3CCCC[C@H]4CC[C@@H](C(=O)N5C[C@@H](c6cc[nH]c(=O)c6)CC56CC6)N4C3=O)cc2c1)Oc1ccccc1 (stereo partly drawn) [Compound 409, propyl (((7-(((3S,6S,10aS)-5-oxo-3-((R)-6-(2-oxo-1,2-dihydropyridin-4-yl)-4-azaspiro[2.4]heptane-4-carbonyl)decahydropyrrolo[1,2-a]azocin-6-yl)carbamoyl)naphthalen-2-yl)methyl)(phenoxy)phosphoryl)-L-alaninate]
IC50 (pY641-STAT6 in PBMC; STAT6, PBMC): 1000 to 3000 nM | IC50 (pY705-STAT3 in PBMC): > 3000 nM

CC(C)COC(=O)[C@H](C)NP(=O)(Cc1ccc2ccc(C(=O)N[C@H]3CCCC[C@H]4CC[C@@H](C(=O)N5CC(c6ccccc6)CC56CC6)N4C3=O)cc2c1)Oc1ccccc1 (stereo partly drawn) [Compound 410, isobutyl (((7-(((3S,6S,10aS)-5-oxo-3-(6-phenyl-4-azaspiro[2.4]heptane-4-carbonyl)decahydropyrrolo[1,2-a]azocin-6-yl)carbamoyl)naphthalen-2-yl)methyl)(phenoxy)phosphoryl)-L-alaninate]
IC50 (pY641-STAT6 in PBMC; STAT6, PBMC): > 3000 nM | IC50 (pY705-STAT3 in PBMC): > 3000 nM

CCCOC(=O)[C@H](C)NP(=O)(Oc1ccccc1)C(F)c1ccc2sc(C(=O)N[C@H]3CCC[C@H]4CC[C@@H](C(=O)N5CC(c6cccnc6)C5)N4C3=O)cc2c1 (stereo partly drawn) [Compound 415, propyl ((fluoro(2-(((3S,6S,9aS)-5-oxo-3-(3-(pyridin-3-yl)azetidine-1-carbonyl)octahydro-1H-pyrrolo[1,2-a]azepin-6-yl)carbamoyl)benzo [b]thiophen-5-yl)methyl)(phenoxy)phosphoryl)-L-alaninate]
IC50 (pY641-STAT6 in PBMC; STAT6, PBMC): 1000 to 3000 nM | IC50 (pY705-STAT3 in PBMC): < 100 nM

CCCOC(=O)[C@H](C)NP(=O)(Oc1ccccc1)C(F)(F)c1ccc2ccc(C(=O)N[C@H]3CCCC[C@H]4CC[C@@H](C(=O)N5C[C@H](c6cc[nH]c(=O)c6)CC56CC6)N4C3=O)cc2c1 (stereo partly drawn) [Compound 419, propyl ((difluoro(7-(((3S,6S,10aS)-5-oxo-3-((S)-6-(2-oxo-1,2-dihydropyridin-4-yl)-4-azaspiro[2.4]heptane-4-carbonyl)decahydropyrrolo[1,2-a]azocin-6-yl)carbamoyl)naphthalen-2-yl)methyl)(phenoxy)phosphoryl)-L-alaninate]
IC50 (pY641-STAT6 in PBMC; STAT6, PBMC): 100 to 1000 nM | IC50 (pY705-STAT3 in PBMC): > 3000 nM

CCCOC(=O)[C@H](C)NP(=O)(Cc1ccc2ccc(C(=O)N[C@H]3CCCC[C@H]4CC[C@@H](C(=O)N5CC(c6ccccc6)CC56CC6)N4C3=O)cc2c1)Oc1ccccc1 (stereo partly drawn) [Compound 421, propyl (((7-(((3S,6S,10aS)-5-oxo-3-(6-phenyl-4-azaspiro[2.4]heptane-4-carbonyl)decahydropyrrolo[1,2-a]azocin-6-yl)carbamoyl)naphthalen-2-yl)methyl)(phenoxy)phosphoryl)-L-alaninate]
IC50 (pY641-STAT6 in PBMC; STAT6, PBMC): 100 to 1000 nM | IC50 (pY705-STAT3 in PBMC): > 3000 nM

CCCOC(=O)[C@H](C)NP(=O)(Oc1ccccc1)[C@H](F)c1ccc2sc(C(=O)N[C@H]3CCCC[C@H]4CC[C@@H](C(=O)N5C[C@H](c6ccccc6)[C@@H](C#N)C56CC6)N4C3=O)cc2c1 (stereo partly drawn) [Compound 485, propyl (((S)-(2-(((3S,6S,10aS)-3-((6S,7R)-7-cyano-6-phenyl-4-azaspiro[2.4]heptane-4-carbonyl)-5-oxodecahydropyrrolo [1,2-a]azocin-6-yl)carbamoyl)benzo [b]thiophen-5-yl)fluoromethyl) (phenoxy)phosphoryl)-L-alaninate]
IC50 (pY641-STAT6 in PBMC; STAT6, PBMC): < 100 nM | IC50 (pY705-STAT3 in PBMC): > 3000 nM

CCCC(=O)SCCOP(=O)(OCCSC(=O)CCC)C(F)(F)c1ccc2sc(C(=O)N[C@H]3CCC[C@H]4CC[C@@H](C(=O)N5CC(c6ncccn6)C5)N4C3=O)cc2c1 [Compound 940, S,S′-((((difluoro(2-(((3S,6S,9aS)-5-oxo-3-(3-(pyrimidin-2-yl)azetidine-1-carbonyl)octahydro-1H-pyrrolo[1,2-a]azepin-6-yl)carbamoyl)benzo [b]thiophen-5-yl)methyl)phosphoryl)bis(oxy))bis(ethane-2,1-diyl)) dibutanethioate]
IC50 (pY641-STAT6 in PBMC; PBMC, read-out: STAT6): 100 to 1000 nM | IC50 (pY705-STAT3 in PBMC): < 100 nM

CCCOC(=O)[C@H](C)NP(=O)(Oc1ccccc1)[C@@H](F)c1ccc2sc(C(=O)N[C@H]3CCC[C@H]4CC[C@@H](C(=O)N5CC(c6cnccc6N(C)C)C5)N4C3=O)cc2c1 (stereo partly drawn) [Compound 942, propyl (((R)-(2-(((3S,6S, 9aS)-3-(3-(4-(dimethylamino)pyridin-3-yl)azetidine-1-carbonyl)-5-oxooctahydro-1H-pyrrolo[1,2-a]azepin-6-yl)carbamoyl)benzo [b]thiophen-5-yl)fluoromethyl) (phenoxy)phosphoryl)-L-alaninate]
IC50 (pY641-STAT6 in PBMC; STAT6, PBMC): > 3000 nM | IC50 (pY705-STAT3 in PBMC): 100 to 1000 nM

CCCOC(=O)[C@H](C)NP(=O)(Oc1ccccc1)C(F)c1ccc2sc(C(=O)N[C@H]3CCC[C@H]4CC[C@@H](C(=O)N5CC(c6cnccc6F)C5)N4C3=O)cc2c1 (stereo partly drawn) [Compound 943, propyl ((fluoro(2-(((3S,6S,9aS)-3-(3-(4-fluoropyridin-3-yl)azetidine-1-carbonyl)-5-oxooctahydro-1H-pyrrolo[1,2-a]azepin-6-yl)carbamoyl)benzo [b]thiophen-5-yl)methyl)(phenoxy)phosphoryl)-L-alaninate]
IC50 (pY641-STAT6 in PBMC; STAT6, PBMC): > 3000 nM | IC50 (pY705-STAT3 in PBMC): < 100 nM

CC(C)CC(=O)SCCOP(=O)(OCCSC(=O)CC(C)C)C(F)(F)c1ccc2sc(C(=O)N[C@H]3CCC[C@H]4CC[C@@H](C(=O)N5CC(c6ncccn6)C5)N4C3=O)cc2c1 [Compound 961, S,S′-((((difluoro(2-(((3S,6S,9aS)-5-oxo-3-(3-(pyrimidin-2-yl)azetidine-1-carbonyl)octahydro-1H-pyrrolo[1,2-a]azepin-6-yl)carbamoyl)benzo [b]thiophen-5-yl)methyl)phosphoryl)bis(oxy))bis(ethane-2,1-diyl)) bis(3-methylbutanethioate)]
IC50 (pY641-STAT6 in PBMC; PBMC, read-out: STAT6): 1000 to 3000 nM | IC50 (pY705-STAT3 in PBMC): < 100 nM

CC(C)(C)C(=O)SCCOP(=O)(OCCSC(=O)C(C)(C)C)C(F)(F)c1ccc2sc(C(=O)N[C@H]3CCC[C@H]4CC[C@@H](C(=O)N5CC(c6ncccn6)C5)N4C3=O)cc2c1 [Compound 962, S,S′-((((difluoro(2-(((3S,6S,9aS)-5-oxo-3-(3-(pyrimidin-2-yl)azetidine-1-carbonyl)octahydro-1H-pyrrolo[1,2-a]azepin-6-yl)carbamoyl)benzo [b]thiophen-5-yl)methyl)phosphoryl)bis(oxy))bis(ethane-2,1-diyl))bis(2,2-dimethyl-propanethioate)]
IC50 (pY641-STAT6 in PBMC; PBMC, read-out: STAT6): > 3000 nM | IC50 (pY705-STAT3 in PBMC): < 100 nM
